Measurements: patent publication US9770451B2, “Composition including ATM inhibitor for reducing cellular senescence and use of the composition” (Samsung Electronics Co., Ltd., priority 2014, dated 2017)

Test system: progeria senescent fibroblasts (passage 17)
Experiment: DNA comet assay
Type: cell-based, human
Settings: CP-466722 0.1 μM, 4 weeks
Protocol: To determine the extent of recovery of the senescent cells to the DNA damage in accordance with the ATM-kinase inhibitor, the DNA comet assay (Trevigen, 4250-050-K) was carried out according to the protocol of the manufacturer. The principle of the DNA comet assay is based on gel electrophoresis. The damaged DNA moves farther away in the electrophoresis process than the undamaged DNA, resulting in the formation of a comet-tail shape. Afterwards, a slide used herein was stained with cyber green (SYBR Green), so that the tail length of the DNA fragment was measured by using fluorescence microscopy to confirm the extent of the DNA damage. The extent of the DNA damage may be measured as a tail moment value obtained by multiplying tail DNA % by the distance of migration of DNA fragmentation from the nucleus or the tail length. […]
To determine the extent of recovery of the senescent cells to the DNA damage in accordance with the ATM-kinase inhibitor, the DNA comet assay (Trevigen, 4250-050-K) was carried out according to the protocol of the manufacturer. […] Afterwards, a slide used herein was stained with cyber green (SYBR Green), so that the tail length of the DAN fragment was measured by using fluorescence microscopy to confirm the extent of the DNA damage. […]

**Q.** With `COc1cc2ncnc(-n3nc(-c4ccccn4)nc3N)c2cc1OC` [CP-466722, 2-(6,7-dimethoxyquinazolin-4-yl)-5-(pyridin-2-yl)-2H-1,2,4-triazol-3-amine] as the compound, how does the “DNA damage (tail moment) vs DMSO control” value read?
**A.** significantly decreased
